Patent publication US4554355A, “Heterocyclic compounds as antiallergic agents” (American Home Products Corporation, priority 1984, dated 1985)
pIC50: −log10 of the molar value. Like-named read-outs stand apart in the source and are kept apart here.

Tests used:
[1] = test system: synthesis of 5-HETE and LTB4 by rat glycogen-elicited polymorphonuclear leukocytes; test: inhibition of the synthesis of 5-HETE and LTB4 by rat glycogen-elicited polymorphonuclear leukocytes; format: cell-based, rat (female Wistar); details: rat PMN, A23187 10 μM; for pIC50: Leukocyte, 10 min preincubation
Method: This is especially true with respect to 5,12-diHETE, which is also denoted as LTB4 [see Ford-Hitchinson, J. Roy. Soc. Med., 74, 831 (1981)]. The assay of this Example measures the ability of the compounds of the invention to inhibit the synthesis of 5-HETE and LTB4 by rat glycogen-elicited polymorphonuclear leukocytes.
The assay is carried out as follows:
Peritoneal PMN are obtained from female Wistar rats (150-250 g) that received an i.p. injection of 6% glycogen (10 ml). After 24 hours, rats are killed by CO2 asphyxiation and peritoneal cells are harvested by peritoneal lavage using Ca^++ and Mg^++ free Hanks' balanced salt solution (HBSS). The peritoneal exudate is centrifuged at 400 g for 10 minutes. After centrifugation, the lavaged fluid is removed and the cell pellet is resuspended in HBSS containing Ca^++ and Mg^++ and 10 mM L-cysteine at a concentration of 2×10^7 cells/ml. To 1 ml portions of cell suspension, test drugs or vehicle are added and incubated at 37° C. for 10 minutes. Following this preincubation, the calcium ionophore (10 μM), A23187, is added together with 0.5 μCi[^14 C]arachidonic acid and further incubated for 10 minutes. The reaction is stopped by the addition of ice cold water (3 ml) and acidifying to pH 3.5. Lipoxygenase products are then extracted twice into diethyl ether. The pooled ether extracts are evaporated to dryness under nitrogen and the residue is redissolved in a small volume of methanol and spotted on aluminum backed pre-coated thin layer chromatographic plates. The samples are then co-chromatographed with authentic reference 5-HETE, 12-HETE and 5,12-diHETE in the solvent system--hexane:ether:acetic acid (50:50:3). After chromatography, the areas associated with 5-HETE and 5,12-diHETE standards are identified by autoradiography, cut out and quantitated by liquid scintillation.
Results are expressed as % inhibition of [^14 C]5-HETE and [^14 C]LTB4 (5,12-HETE) synthesis. [formula]
Testing compounds of the invention in this assay and using the antioxidant 3-amino-1-[m-(trifluoromethyl)phenyl]-2-pyrazoline (BW755C) as a standard, the following results are obtained.

[2] = test system: LTD4 induced bronchospasm; test: in vivo inhibition of bronchospasm induced in guinea pigs by exogenously administered leukotriene LTD4; parameters: species or system guinea pig (male Hartley strain); details: guinea pig, 50 mg/kg intraduodenal, 10 minutes before induction
Method: The assay of this Example measures the in vivo ability of the compounds of the invention to inhibit the bronchospasm induced in guinea pigs by the exogenously administered leukotrienes C4 and/or D4. This assay is essentially a measure of the SRS-A antagonist properties of the compounds tested.
This assay is carried out as follows:
Male Hartley strain guinea pigs (350-600 g) are anesthetized with pentobarbital sodium (50 mg/kg, i.p.). The jugular vein is cannulated for injection of drugs and the carotid artery for monitoring blood pressure. The trachea is cannulated for artificial ventilation by a miniature Starling pump and for indirect measurement of respiratory volume changes as described infra. Additional pentobarbital sodium (15 mg/kg, i.v.) is administered to arrest spontaneous respiration. Submaximal bronchoconstrictor responses are established in control animals by varying the dose-levels of leukotriene. Intravenous dose-levels for LTC4 range from 1 to 2 μg/kg and for LTD4 the range is from 0.3 to 1 μg/kg. The aerosol bronchoprovocation dose for LTC4 is generated from 1.6 μM solution and for LTD4 from a 2.0 μM solution.
Test drugs are administered either intravenously, intraduodenally, by aerosol or orally at 1 or 10 minutes before induction of bronchospasm by administration of either LTC4 or LTD4 at the predetermined dose-levels. Aerosols of soluble drugs or leukotrienes are produced in-line for 10 seconds only by actuation of an ultrasonic nebulizer (Monaghan). Aerosolized drug dosage is expressed in terms of solution concentration and by a fixed aerosol exposure time (approximately 10 seconds). Control animals receive saline in place of drug.
Respiratory volume changes are determined by a calibrated piston whose travel is recorded, via a linear transducer, on a Beckman Dynograph recorder. Maximal bronchoconstrictor volume is determined by clamping off the trachea at the end of the experiment. Overflow volumes at 1, 3 and 5 minutes are obtained from the recorded charts.
The overflow volume at 1, 3 and 5 minutes is expressed as a percentage of maximal bronchoconstriction. Combined group values are used from each of these time intervals to determine the inhibitory effect of drugs. [formula] Students t-test for unpaired data is used to determine statistical significance. Dose response curves are generated and ED50 doses are interpolated from the regression lines.
Results for a compound of the invention in this assay, using LTD4 for induction of bronchospasm, is given below: […]

## COC(=O)C1CC(=O)N(c2cccc(OCc3nc4ccccc4n3C)c2)C1 (centres unmarked) [Example 2A, N-[3-[(1-methyl-2-benzimidazolyl)methoxy]phenyl]pyrrolidin-2-on-4-carboxylic acid, methyl ester]
[1]; [14C]5-HETE synthesis
  % Inhibition at 100 μm, 5-HETE: 34.60%
[1]; [14C]LTB4 synthesis
  % Inhibition at 100 μm, LTB4: 32.30%
[2]
  % Inhibition Overflow Volume at 1 min.: 56%
  % Inhibition Overflow Volume at 3 min.: 20%
  % Inhibition Overflow Volume at 5 min.: 18%

## NC1=NN(c2cccc(C(F)(F)F)c2)CC1 [BW755C, 3-amino-1-[m-(trifluoromethyl)phenyl]-2-pyrazoline, reference compound]
[1]; [14C]5-HETE synthesis, read-out: 50% Inhibitory Concentration (IC50), 5-HETE
  pIC50: 4.37
[1]; [14C]LTB4 synthesis, read-out: 50% Inhibitory Concentration (IC50), LTB4
  pIC50: 4.52

## COC(=O)C1CC(=O)N(c2cccc(OCc3nc4ccccc4s3)c2)C1 (centres unmarked) [Example 1, N-[3-[(2-Benzthiazolyl)methoxy]phenyl]pyrrolidin-2-on-4-carboxylic acid, methyl ester]
[1]; [14C]5-HETE synthesis
  % Inhibition at 100 μm, 5-HETE: 94.30%
[1]; [14C]LTB4 synthesis
  % Inhibition at 100 μm, LTB4: 84.50%
[2]
  % Inhibition Overflow Volume at 1 min.: 72%
  % Inhibition Overflow Volume at 3 min.: 66%
  % Inhibition Overflow Volume at 5 min.: 68%

## COC(=O)C1CC(=O)N(c2cccc(OCc3nc4ccccc4o3)c2)C1 (centres unmarked) [Example 2B, N-[3-[(2-benzoxazolyl)methoxy]phenyl]pyrrolidin-2-on-4-carboxylic acid, methyl ester]
[1]; [14C]5-HETE synthesis
  % Inhibition at 100 μm, 5-HETE: 87.20%
[1]; [14C]LTB4 synthesis
  % Inhibition at 100 μm, LTB4: 82.80%
[2]
  % Inhibition Overflow Volume at 1 min.: 26%
  % Inhibition Overflow Volume at 3 min.: 12%
  % Inhibition Overflow Volume at 5 min.: 15%
